Legend:
mouse FPR2 = biological target: T1, mouse FPR2 (Mus musculus, UniProt O88536); experiment: Calcium flux in FPR2-transfected HEK 293 cells; type: cell-based; conditions: 250 ng/ml pertussis toxin for 4 h
T1 construct: expressed in transfected cells; host or cells: HEK 293
T1 sequence (O88536 1-351): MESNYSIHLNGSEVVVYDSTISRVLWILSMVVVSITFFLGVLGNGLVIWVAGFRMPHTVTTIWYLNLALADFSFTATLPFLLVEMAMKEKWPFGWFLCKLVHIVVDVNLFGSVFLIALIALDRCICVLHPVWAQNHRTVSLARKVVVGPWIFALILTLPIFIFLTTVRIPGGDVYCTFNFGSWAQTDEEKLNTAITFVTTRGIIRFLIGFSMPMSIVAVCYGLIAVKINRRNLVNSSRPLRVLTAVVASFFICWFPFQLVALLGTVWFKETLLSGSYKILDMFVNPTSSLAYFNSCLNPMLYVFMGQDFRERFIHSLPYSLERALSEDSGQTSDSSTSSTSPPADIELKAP
Description: Cell Lines. Construction of human embryonic kidney (HEK) 293 cell lines expressing human formylpeptide receptor (FPR), human formylpeptide receptor-like 1 receptor (FPRL1R), mouse FPR, mouse FPR2, mouse lipoxin A4 receptor (encoded by Fpr-rs1), a mouse orphan receptor encoded by Fpr-rs3, and human CCR5 and CX3CR1 has been previously described (Hartt J. K. et al. 1999 J Exp Med 190:741-747; Combadiere C. et al. 1996 J Leukocyte Biol 60:147-152; Combadiere C. et al. 1998 J Biol Chem 273:23799-23804; Gao J.-L. et al. 1998 Genomics 51:270-276). Fpr-rs1 and Fpr-rs3 were tested because of their high structural similarity to the known formylpeptide receptors and because they are also expressed in phagocytes (Gao J.-L. et al. 1998 Genomics 51:270-276). […]
Calcium Flux Analysis. […] Data were recorded every 200 ms as the relative ratio of fluorescence emitted at 510 nm following sequential excitation at 340 and 380 nm. The following ligands were evaluated: Aβ (nonfibrillated, human residues 1-42; California Peptide Research; Napa, Calif.), fMet-Leu-Phe (fMLF; Sigma), ATP (Life Technologies), and the chemokines RANTES (regulated upon activation normal T-cell expressed and secreted), SDF-1 (stromal cell-derived factor-1), 1-309, fractalkine, MIP-1α (macrophage inflammatory protein-1α), and KC (Peprotech, Rocky Hill, N.J.). […]

human monocytes = experiment: Chemotaxis (migration) of human monocytes, 48-well chamber; type: cell-based; conditions: PT 100 ng/ml, 37° C., 30 min
Description: Reagents and cells. Aβ peptide (Aβ42) and the peptide with reversed sequence (Aβ42-1) were purchased from California Peptide Research (Napa, Calif.). All peptides were examined for endotoxin contamination and were negative at highest concentrations used in the study. Human peripheral blood monocytes were isolated from buffy coats (National Institutes of Health Clinical Center, Bethesda, Md.) enriched for mononuclear cells by using iso-osmotic Percoll gradient. The purity of the cell preparations was examined by morphology and was >90%. Rat basophilic leukemia cell line (RBL-2H3) transfected with epitope-tagged N-formylpeptide receptor (FPR) (designated ETFR) was a kind gift of Dr. R. Snyderman (Duke University, Durham, N.C.). cDNA cloning and establishment of FPRL1-transfected human embryonic kidney (HEK) 293 cells (FPRL1/293) were described previously (Gao J. L. & Murphy P. M. 1993 J Biol Chem 268:[…]). All the transfected cells were maintained in culture media as described (Su S. B. et al. 1999 J Exp Med 189:395-402).
Chemotaxis assays and measurement of calcium mobilization. Chemotaxis assays were performed using 48-well chemotaxis chambers (Deng X. et al. 1999 Blood 94:1165-1673). The results were expressed as the mean number (±SD) of migrated cells in three high-powered fields in three replicate samples. Chemotaxis index, which represented the fold increase in the number of cells migrated in response to chemoattractants over the cell response to control medium, also was used. Ca^+ mobilization was measured by stimulating fura-2 AM-loaded human monocytes or receptor-transfected cells with various agents (Deng X. et al. 1999 Blood 94:1165-1673; Su S. B. et al. 1999 J Exp Med 189:395-402) and recording the ratio of fluorescence at 340 and 380 nm in a luminescence spectrometer with FL WinLab program (Perkin-Elmer, Beaconsfield, UK).

In the case of pertussis toxin, the “effect of pretreatment on Aβ calcium flux signaling” value (mouse FPR2) is reported as “completely blocked” and the “effect of preincubation on monocyte migration in response to Aβ42” value (human monocytes) is reported as “completely abolished”.
